Source: US20030092640A1, “Azalide antibiotic compositions” (Pfizer Inc., priority 2001, published 2003)
In brackets after ≈: the same amount, converted by molar mass. Several values for one entry are separate records, joined by “and”; a condition that tells them apart may be missing. Equal entries are not always repeated.

Columns and labels:
[1] = system: E. coli; test: Assay I liquid dilution MIC, E. coli; type: cell-based; conditions: Escherichia coli, 18 h, read-out: MIC against E. coli
[2] = system: Pasteurella multocida (strain 59A067); test: Assay I liquid dilution MIC, P. multocida; type: cell-based; conditions: 100% inhibition of growth, 37° C., 18 hours, BHI broth, read-out: MIC against P. multocida
Protocol: This assay employs conventional methodology and interpretation criteria and is designed to test for activity against Pasteurella multocida, using the liquid dilution method in microliter format. A single colony of P. multocida (strain 59A067) is inoculated into 5 mL of brain heart infusion (BHI) broth. The azalide formulation is prepared by solubilizing 1 mg of the azalide composition in 125 μL of dimethylsulfoxide (DMSO). Dilutions of the azalide compositions are prepared using uninoculated BHI broth. The concentrations of the azalide compounds used range from 200 μg/mL to 0.098 μg/mL by two-fold serial dilutions. The P. multocida inoculated BHI is diluted with uninoculated BHI broth to make a 10^4 cell suspension per 200 μL. The BHI cell suspensions are mixed with respective serial dilutions of the azalide compositions, and incubated at 37° C. for 18 hours.
Accordingly, as expected, the azalide compounds used in this invention are active against a variety of organisms.

[3] = system: S. aureus; test: Assay I liquid dilution MIC, S. aureus; type: cell-based; conditions: Staphylococcus aureus, 18 h, read-out: MIC against S. aureus
[4] = Potency retention (HPLC stability) of azalide in aqueous propylene glycol/citric acid compositions; type: physicochemical; conditions: 0.1 M citric acid
Protocol: As used in this application, the term “potency” means the amount of an azalide compound present in a “test” sample subjected to a particular set of experimental conditions during a particular time interval, relative to the amount of the azalide compound present in an otherwise identical “control” sample stored at 5° C. for the same time interval. Upon completion of the experiment for a given sample, the test and control samples are typically subjected to appropriate processing steps to allow accurate determination of the amount of the azalide compound. Relative amounts of azalide compound in the test and control samples may be determined by any number of means which are well-known in the art, such as high performance liquid chromatography (“HPLC”), nuclear magnetic resonance spectroscopy (“NMR”), gas chromatography (“GC”), mass spectrometry (“MS”), liquid chromatography/mass spectrometry (“LC/MS”), GC/MS, and thin layer chromatography (“TLC”).
Preferred methods for determining that a stable azalide composition has been obtained include gel chromatography, thin-layer chromatography, and HPLC. More preferably, HPLC is used. To monitor the compositions of the invention for potency, after dilution to final volume and sterilization by filtration, the compositions were subdivided into 3.5 mL glass vials which were sealed with rubber stoppers and an aluminum crimp. For the tests reported below, approximately 10 vials containing 2.5 mL each were prepared.
Approximately 30 mL of each composition listed in Table 1 below was prepared as follows:
1) Sufficient citric acid was added to Water for Injection to produce a solution having a final concentration of acid of 0.1 M;
2) The compound of formula 1a or 1b was added in an amount to produce a final azalide concentration of 100 mg/mL (0.12 mmol/mL of the composition), and the mixture was stirred until the azalide was dissolved;
3) Propylene glycol was added to produce a concentration in the final mixture of from about 25% to about 75% by weight relative to the total volume;
4) The pH was adjusted by addition of 10% aqueous HCl or 10 M aqueous NaOH as necessary;
5) Water for Injection was added to bring the volume to 30 mL;
6) Each sample was subdivided by filtration through a 0.22 micron Millex GV filter into 3.5 mL glass vials which were each sealed with a rubber stopper and an overseal consisting of an aluminum crimp. Approximately 10 vials containing 2.5 mL each were prepared for each sample.
To monitor the stability of the azalide compositions, vials were assayed by HPLC after exposure to elevated temperatures for a period of time. Aliquots were removed from vials and diluted with a mixture of 15% 10 mM potassium phosphate buffer, pH 6.5, 85% 1:1 (v/v) acetonitrile:methanol to a concentration of approximately 1.0 mg of the compound of formula 1 per mL total sample volume. Diluted samples were subjected to chromatography in a Waters Alliance 2690 HPLC system having a 2487 UV detector. The column was a Waters Symmetry C-18, 5 micron (250×4.6 mm), the mobile phase was the same as the phosphate/acetonitrile/methanol diluent above and the flow rate was 1 mL/minute. Peaks were detected by monitoring ultraviolet absorption at 210 nm. Relative amounts of azalide compound in the experimental samples and the controls were determined by taking the ratio of their relative chromatogram-peak areas. Although HPLC was used in this experiment, other known methods, including NMR, GC, MS, LC/MS, GC/MS, and TLC can be used to evaluate the potency of the compound of formula 1.
The results are reported in Table 1 below as a percentage of the compound of formula 1 remaining after exposure to various temperature and duration conditions, relative to the amount of the compound present in an otherwise identical sample stored at 5° C. for the same time interval.

[5] = preparation 1: propylene glycol 50 w/v %, pH 4.5, 100 mg/mL azalide
[6] = preparation 2: propylene glycol 25 w/v %, pH 5.0, 100 mg/mL azalide
[7] = preparation 3: propylene glycol 75 w/v %, pH 5.0, 100 mg/mL azalide
[8] = preparation 7: propylene glycol 25 w/v %, pH 6.0, 100 mg/mL azalide
[9] = preparation 8: propylene glycol 75 w/v %, pH 6.0, 100 mg/mL azalide
[10] = preparation 9: propylene glycol 50 w/v %, pH 6.5, 100 mg/mL azalide
[11] = preparations 4, 5, 6: propylene glycol 50 w/v %, pH 5.5, 100 mg/mL azalide

SMILES | MIC [1] | MIC [2] | MIC [3] | Potency (% of 5° C.) 6 weeks, 50° C. [4, 5] | Potency (% of 5° C.) 12 weeks, 50° C. [4, 5] | Potency (% of 5° C.) 6 weeks, 50° C. [4, 6] | Potency (% of 5° C.) 12 weeks, 50° C. [4, 6] | Potency (% of 5° C.) 6 weeks, 50° C. [4, 7] | Potency (% of 5° C.) 12 weeks, 50° C. [4, 7] | Potency (% of 5° C.) 6 weeks, 50° C. [4, 8] | Potency (% of 5° C.) 12 weeks, 50° C. [4, 8] | Potency (% of 5° C.) 6 weeks, 50° C. [4, 9] | Potency (% of 5° C.) 12 weeks, 50° C. [4, 9] | Potency (% of 5° C.) 6 weeks, 50° C. [4, 10] | Potency (% of 5° C.) 12 weeks, 50° C. [4, 10] | Potency (% of 5° C.) 6 weeks, 50° C. [4, 11] | Potency (% of 5° C.) 12 weeks, 50° C. [4, 11]
CC[C@H]1OC(=O)[C@H](C)[C@@H](O[C@H]2C[C@@](C)(OC)[C@](O)(CNC(C)C)[C@H](C)O2)[C@H](C)[C@@H](O[C@@H]2O[C@H](C)C[C@H](N(C)C)[C@H]2O)[C@](C)(O)C[C@@H](C)CN(C)[C@H](C)[C@@H](O)[C@]1(C)O [Compound 1a, 1-Oxa-6-azacyclopentadecan-15-one, 13-[[2,6-dideoxy-3-C-methyl-3-O-methyl-4-C-[[(1-methylethyl)amino]methyl]-α-L-ribo-hexopyranosyl]oxy]-2-ethyl-3,4,10-trihydroxy-3,5,6,8,10,12,14-heptamethyl-11-[[3,4,6-trideoxy-3-(dimethylamino)-β-D-xylo-hexopyranosyl]oxy]-, (2R,3S,4R,5R,8R,10R,11R,12S,13S,14R)-] | 0.39 µg/mL (≈ 0.476 µM) | 0.05 µg/mL (≈ 0.061 µM) | 0.2 µg/mL (≈ 0.244 µM) | 91.9% | 91.3% | 93.6% | 87.9% | 96.0% | 102.6% | 90.6% | 85.7% | 89.5% | 89.8% | 84.1% | 75.9% | 96.3% and 95.6% and 93.9% | 92.9% and 91.4% and 90.4%
CC[C@H]1OC(=O)[C@H](C)[C@@H](O[C@H]2C[C@@](C)(OC)[C@](O)(CN(C)CC)[C@H](C)O2)[C@H](C)[C@@H](O[C@@H]2O[C@H](C)C[C@H](N(C)C)[C@H]2O)[C@](C)(O)C[C@@H](C)CN(C)[C@H](C)[C@@H](O)[C@]1(C)O [Compound 1b, 1-Oxa-6-azacyclopentadecan-15-one, 13-[[2,6-dideoxy-4-C-[(ethylmethylamino)methyl]-3-C-methyl-3-O-methyl-α-L-ribo-hexopyranosyl]oxy]-2-ethyl-3,4,10-trihydroxy-3,5,6,8,10,12,14-heptamethyl-11-[[3,4,6-trideoxy-3-(dimethylamino)-β-D-xylo-hexopyranosyl]oxy]-, (2R,3S,4R,5R,8R,10R,11R,12S,13S,14R)-] | 0.39 µg/mL (≈ 0.476 µM) | 0.05 µg/mL (≈ 0.061 µM) | 0.39 µg/mL (≈ 0.476 µM) | 96.1% | 92.1% | 96.5% | 92.4% | 98.8% | 96.1% | 90.0% | 81.5% | 93.8% | 94.0% | 86.5% | 76.5% | 94.9% and 93.0% and 93.3% | 91.8% and 96.1% and 95.3%
